Experimental data reported in PMC6366416, “Synthesis and in vitro anticancer activity of certain novel 1-(2-methyl-6-arylpyridin-3-yl)-3-phenylureas as apoptosis-inducing agents” (Journal of Enzyme Inhibition and Medicinal Chemistry, 2019).

Columns and labels:
HCT-116 cell line = experiment: MTT anti-proliferative assay; format: cell-based; settings: Homo sapiens, 48 h of incubation, mean ± SD of three experiments
Experimental: (§1) A549 (non-small cell lung cancer cell line) and HCT-116 (human colon cancer cell line), were obtained from American Type Culture Collection (Manassas, VA, USA). The cells were maintained in Dulbecco’s Modified Eagle’s Medium (DMEM) (Sigma-Aldrich, St. Louis, MO), and supplemented with 10% heat-inactivated FBS (Hyclone), 10 μg/mL of insulin (Manufacturer, Sigma, St. Louis, MO, USA), and 1% penicillin-streptomycin. MTT assay[29] was adopted to assess the in vitro antitumor activity of the newly synthesized pyridines 5a–l according to the reported procedures, using Doxorubicin as a standard treatment. Experimental conditions were tested using three replicates (three wells of the 96-well plate per experimental condition) and all experiments were carried out in triplicates. IC50 values were calculated by the use of the equation for Boltzman sigmoidal concentration–response curve using the nonlinear regression fitting models by Graph Pad, Prism version 5 (GraphPad Software Inc., La Jolla, CA).
(§2) All newly synthesized pyridines 5a–l were examined for their anti-proliferative activity towards two cancer cell lines: non-small cell lung cancer A549 cell line and colon cancer HCT-116 cell line. The MTT colorimetric assay was adopted to assess the anti-proliferative activity as described by Mosmann[29]. Doxorubicin was used as a control in this assay.

A549 cell line = experiment: MTT anti-proliferative assay; format: cell-based; settings: Homo sapiens, 48 h of incubation, mean ± SD of three experiments
Experimental: as §1, §2

WI-38 cell line = experiment: MTT cytotoxicity towards non-tumorigenic cells; format: cell-based, human; settings: for IC50: WI-38, MTT, non-tumorigenic human lung fibroblast, mean ± SD of three experiments; for S. I. WI-38/A549: selectivity index, IC50 WI-38 / IC50 A549
Experimental: The cytotoxic activity of all synthesized pyridines 5a–l were assessed against non-tumorigenic human lung fibroblast WI-38 cell line to investigate their safety, using the MTT colorimetric assay.

Cc1nc(-c2ccc(F)cc2)ccc1NC(=O)Nc1cc(C(F)(F)F)cc(C(F)(F)F)c1 [Compound 5b, 1-(3,5-Bis(trifluoromethyl)phenyl)-3-(6-(4-fluorophenyl)-2-methylpyridin-3-yl)urea]
IC50 (HCT-116 cell line): 16 ± 1.52 µM
IC50 (A549 cell line): 24.1 ± 1.78 µM
IC50 (WI-38 cell line): 151 ± 8.12 µM
S. I. WI-38/A549 (WI-38 cell line): 6.3
melting point: 235 to 237 °C

Cc1nc(-c2cccs2)ccc1NC(=O)Nc1ccc2c(c1)OCO2 [Compound 5k, 1-(Benzo[d][1, 3]dioxol-5-yl)-3-(2-methyl-6-(thiophen-2-yl)pyridin-3-yl)urea]
IC50 (HCT-116 cell line): 16.4 ± 1.3 µM
IC50 (A549 cell line): 19.2 ± 2.05 µM
IC50 (WI-38 cell line): 139 ± 10.4 µM
S. I. WI-38/A549 (WI-38 cell line): 7.2
melting point: 239 to 241 °C

COc1cccc2c1C(=O)c1c(O)c3c(c(O)c1C2=O)C[C@@](O)(C(=O)CO)C[C@@H]3O[C@H]1C[C@H](N)[C@H](O)[C@H](C)O1 [Doxorubicin, reference compound]
IC50 (HCT-116 cell line): 3.1 ± 0.22 µM
IC50 (A549 cell line): 2.93 ± 0.28 µM
